According to patent US11827624B2, “Covalent immune recruiter compounds for immune cell recognition and associated uses” (McMaster University, priority 2020, dated 2023):

Assays:
[1] = test system: PSMA+HEK cells; assay: Luminescence ADCC reporter (CD16α activation) assay with mmAb; type: cell-based, human; details: antibody 10^−7-10^−9 M
Protocol: Covalent vs. non-covalent antibody recruitment were compared in functional immune assays. Activation of NK cell CD16α immune receptors was assessed via luminescence based ADCC assays. ADCC was quantified using the ADCC Reportor Bioassay kit (Promega G7010). All ADCC induced luminescence was measured on a SpectraMax i3 plate reader (Molecular Devices). The human IgG isotype control used was purchased from Jackson ImmunoResearch (009-000-003). The human IgG1 monoclonal anti-DNP antibody (mAb) was purchased from Acrobiosystems (DNP-M2). Human IgG from serum was purchased from Innovative Research ([…]1000MG). Anti-DNP depleted serum was made from human IgG from serum (Innovative Research). For PSMA competition controls, 2-PMPA was purchased from Sigma (SML1612). Hek-293T (PSMA+/−) cell lines were generously given by Dr. Cyril Barinka (Institute of Biotechnology CAS, Czech Republic). Ultra low IgG FBS was purchased from Fischer Scientific (A3381901). RPMI-1640 was purchased as a powder from Fischer Scientific (31800089) and resuspended. DMEM was purchased as a powder from Fischer Scientific (12800082) and resuspended. Pen/Strep was purchased from Fischer Scientific (15140-122). FBS was purchased from Fischer Scientific (12484-028). Zeocin was purchased from Fischer Scientific (R25001). HEK-PSMA cells were cultured in DMEM media with 2 mM L-glut, 1% Pen/Strep, 10% FBS, 50 ug/mL Zeocin. HEK cells were cultured in DMEM media with 2 mM L-glut, 1% Pen/Strep, 10% FBS.
Preparation of antibody-CIR/ARM stocks were mixed overnight prior to addition to the ADCC plate. In the case of mmAb and mAb, incubation was carried out at 600 nM antibody and 1.2 μM CIR or ARM. In the case of IgG from serum, incubation was completed at 230 μM antibody and 8.7 μM CIR or ARM. In all cases, DMSO was kept close to 1%. After the overnight incubation, a dilution series was completed on the antibody-CIR/ARM stocks in RPMI (1% DMSO). […] 75 μL of Bio-Glo Luciferase Assay Reagent was added to each well, and luminescence was quantified using the SpectraMax i3 plate reader. […]

[2] = test system: PSMA+HEK cells; assay: CD16α activation assay with pan human IgG as source of sAb; type: cell-based; details: pan IgG 230 μM, ~10 nM anti-DNP IgG
Protocol: Preparation of antibody-CIR/ARM stocks were mixed overnight prior to addition to the ADCC plate. In the case of mmAb and mAb, incubation was carried out at 600 nM antibody and 1.2 μM CIR or ARM. In the case of IgG from serum, incubation was completed at 230 μM antibody and 8.7 μM CIR or ARM. In all cases, DMSO was kept close to 1%. After the overnight incubation, a dilution series was completed on the antibody-CIR/ARM stocks in RPMI (1% DMSO). Target cells were seeded at a density of 2.5×10^4 cells per well in opaque 96 well flat-bottom plates (Corning Costar, 3917) in complete media. Sixteen hours after seeding, cells were washed gently with 100 μL of neat RPMI. To the cells, 25 μL of RPMI supplemented with 4% ultra-low IgG FBS was added followed by 25 μL of antibody+/−CIR/ARM conditions described above. After a 30-minute incubation, 25 μL of supplemented RPMI containing 7.5×10^4 Jurkat effector cells expressing human FcgRIlla (CD16) were added to each well. The plates were then incubated for 6 additional hours. 75 μL of Bio-Glo Luciferase Assay Reagent was added to each well, and luminescence was quantified using the SpectraMax i3 plate reader.
Depleted serum IgG is derived from pan serum human IgG passed through DNP coated beads to remove endogenous anti-DNP IgG. […]

O=C(O)CC[C@H](NC(=O)N[C@@H](CCCCNC(=O)NCCOCCOCCOCCOCCOCCOCCOCCOC(=O)n1cnc(CCNC(=O)CNc2ccc([N+](=O)[O-])cc2[N+](=O)[O-])c1)C(=O)O)C(=O)O [CIR 3]
CD16α based target immune recognition [1]: robust target immune recognition | CD16α activation [2]: mediated efficient CD16α activation
